The values below come from patent US11103474B2, “Pharmaceutical parenteral formulation containing carglumic acid” (RECORDATI INDUSTRIA CHIMICA E FARMACEUTICA S.P.A., priority 2016, dated 2021).

This series can be described thus: Preliminary solubility trials (stability of carglumic acid solutions with NaOH, phosphate or HCl). Format: physicochemical. An excerpt: Preliminary solubility trials have been performed using carglumic acid solutions buffered at pH from 5.0 to 5.7 with NaOH (0.5 M) or phosphate; the test were not successful since the solutions were not stable and gave an unknown degradation product (with molecular ion at 159 [m+H]+ detected in HPLC-mass-spectrometry) not present in the solution of carglumic acid in water.

As for `NC(=O)N[C@@H](CCC(=O)O)C(=O)O` [carglumic acid, Carglumic acid], the stability of solution result runs as follows: (buffered at pH from 5.0 to 5.7 with NaOH (0.5 M) or phosphate, unknown degradation product formed) “not stable”; (in HCl 0.5 M, up to 24 hours, two known impurities above the accepted limits) “did not result stable”.
